Measured values published in ChEMBL document CHEMBL1151677, “Bicinchoninic acid protein assay in the determination of adriamycin cytotoxicity modulated by the MDR glycoprotein” (1996).
Converted amounts (≈) assume the structure as drawn. The source made the active and inactive calls. The rule behind the calls is not given here.

Assays:
[1] = test system: MCF; assay: Reversal of P-gp-mediated multidrug resistance in human MCF cells assessed as enhancement in cytotoxicity of adriamycin; type: cell-based
[2] = test system: MCF/ADR; assay: Reversal of P-gp-mediated multidrug resistance in human MCF/ADR cells assessed as enhancement in cytotoxicity of adriamycin; type: cell-based
[3] = Displacement of N-(p-azido-[3-125I]salicyl)-N'-beta-aminoethylvindesine from P-glycoprotein at 12.4 uM
[4] = Cytotoxicity against human MCF7/ADR cells assessed as ratio of drug concentration to 2 x drug ED50 at 0.15 uM after 6 days by BCA assay; type: functional, NCI/ADR-RES
[5] = Cytotoxicity against human MCF7/ADR cells assessed as ratio of drug concentration to 2 x drug ED50 at 0.30 uM after 6 days by BCA assay; type: functional, NCI/ADR-RES
[6] = Cytotoxicity against human MCF7/ADR cells assessed as ratio of drug concentration to 2 x drug ED50 at 0.62 uM after 6 days by BCA assay; type: functional, NCI/ADR-RES
[7] = Cytotoxicity against human MCF7/ADR cells assessed as ratio of drug concentration to 2 x drug ED50 at 1.23 uM after 6 days by BCA assay; type: functional, NCI/ADR-RES
[8] = Cytotoxicity against human MCF7/ADR cells assessed as ratio of drug concentration to 2 x drug ED50 at 2.46 uM after 6 days by BCA assay; type: functional, NCI/ADR-RES
[9] = Cytotoxicity against human MCF7/ADR cells after 6 days by coulter counted assay; type: functional; conditions: NCI/ADR-RES, 144 h, read-out: ED50 (the source's name)
[10] = Cytotoxicity against human MCF7/ADR cells after 6 days by BCA assay; type: functional; conditions: NCI/ADR-RES, 144 h, read-out: ED50 (the source's name)
[11] = test system: MCF7; assay: Cytotoxicity against human MCF7 cells after 6 days by coulter counted assay; type: functional; conditions: MCF7, 144 h, read-out: ED50 (the source's name)
[12] = test system: MCF7; assay: Cytotoxicity against human MCF7 cells after 6 days by BCA assay; type: functional; conditions: MCF7, 144 h, read-out: ED50 (the source's name)
[13] = test system: MCF/ADR; assay: Reversal of P-gp-mediated multidrug resistance in human MCF/ADR cells assessed as ratio of adriamycin ED50 without drug to adriamycin ED50 with drug at 0.28 uM after 6 days by BCA assay; type: cell-based
[14] = test system: MCF/ADR; assay: Reversal of P-gp-mediated multidrug resistance in human MCF/ADR cells assessed as ratio of adriamycin ED50 without drug to adriamycin ED50 with drug at 0.53 uM after 6 days by BCA assay; type: cell-based
[15] = test system: MCF/ADR; assay: Reversal of P-gp-mediated multidrug resistance in human MCF/ADR cells assessed as ratio of adriamycin ED50 without drug to adriamycin ED50 with drug at 1.07 uM after 6 days by BCA assay; type: cell-based
[16] = Cytotoxicity against human MCF7/ADR cells assessed as ratio of drug concentration to 2 x drug ED50 at 0.28 uM after 6 days by BCA assay; type: functional, NCI/ADR-RES
[17] = Cytotoxicity against human MCF7/ADR cells assessed as ratio of drug concentration to 2 x drug ED50 at 0.53 uM after 6 days by BCA assay; type: functional, NCI/ADR-RES
[18] = Cytotoxicity against human MCF7/ADR cells assessed as ratio of drug concentration to 2 x drug ED50 at 1.07 uM after 6 days by BCA assay; type: functional, NCI/ADR-RES
[19] = Cytotoxicity against human MCF7/ADR cells assessed as ratio of drug concentration to 2 x drug ED50 at 0.82 uM after 6 days by BCA assay; type: functional, NCI/ADR-RES
[20] = Cytotoxicity against human MCF7/ADR cells assessed as ratio of drug concentration to 2 x drug ED50 at 1.64 uM after 6 days by BCA assay; type: functional, NCI/ADR-RES
[21] = Cytotoxicity against human MCF7/ADR cells assessed as ratio of drug concentration to 2 x drug ED50 at 3.29 uM after 6 days by BCA assay; type: functional, NCI/ADR-RES

For `COc1ccc(CCN(C)CCCC(C#N)(c2ccc(OC)c(OC)c2)C(C)C)cc1OC` (stereo not drawn), the Activity [1] was “inactive”.
With `C=C[C@H]1C[N+]2(Cc3ccccc3)CC[C@H]1C[C@H]2[C@H](O)c1ccnc2ccc(OC)cc12` the Activity [1] was “inactive” and the Activity [2] was “inactive”.
Work on `COC(=O)[C@H]1[C@H]2C[C@@H]3c4[nH]c5cc(OC)ccc5c4CCN3C[C@H]2C[C@@H](OC(=O)c2cc(OC)c(OC)c(OC)c2)[C@@H]1OC` [RESERPINE] yielded an Activity [3] of 79.2%, a Ratio [4] of 0.05 and a Ratio [5] of 0.009. It also gave a Ratio [6] of 0.02, a Ratio [7] of 0.04 and a Ratio [8] of 0.08.
With `COc1cccc2c1C(=O)c1c(O)c3c(c(O)c1C2=O)C[C@@](O)(C(=O)CO)C[C@@H]3O[C@H]1C[C@H](N)[C@H](O)[C@H](C)O1` [DOXORUBICIN] the EC50 [9] was 2.7 µg/mL (≈ 4.97 µM), the EC50 [10] was 0.47 µg/mL (≈ 0.865 µM) and the Activity [1] was “Active”. It also gave an EC50 [11] of 0.0021 µg/mL (≈ 0.00386 µM) and an EC50 [12] of 0.0018 µg/mL (≈ 0.00331 µM).
`CC[C@H]1CN2CC[C@H]1C[C@H]2[C@@H](Oc1cc(C)c2ccccc2n1)c1ccnc2ccc(OC)cc12` gave a Ratio ED50 [13] of 3, a Ratio ED50 [14] of 6 and a Ratio ED50 [15] of 18. For the same molecule, the Ratio [16] was 0.03, the Ratio [17] was 0.06 and the Ratio [18] was 0.11.
`COC(=O)[C@H]1[C@H]2C[C@H]3c4[nH]c5cc(OC)ccc5c4CCN3C[C@H]2C[C@@H](OC(=O)c2cc(OC)c(OC)c(OC)c2)[C@@H]1OC` [ISORESERPINE] showed a Ratio [19] of 0.04, a Ratio [20] of 0.09 and a Ratio [21] of 0.17.
